Assay results: ChEMBL document CHEMBL1155471, “Discovery of potent, balanced and orally active dual NK1/NK3 receptor ligands” (Bioorg Med Chem Lett, 2010)

Tests used:
Neuromedin-K receptor = target: T1, Neuromedin-K receptor (Homo sapiens, UniProt P29371); assay: Displacement of [3H]SR142801 from human NK3 receptor expressed in HEK293-EBNA cells; type: cell-based
T1 sequence (P29371 whole entry): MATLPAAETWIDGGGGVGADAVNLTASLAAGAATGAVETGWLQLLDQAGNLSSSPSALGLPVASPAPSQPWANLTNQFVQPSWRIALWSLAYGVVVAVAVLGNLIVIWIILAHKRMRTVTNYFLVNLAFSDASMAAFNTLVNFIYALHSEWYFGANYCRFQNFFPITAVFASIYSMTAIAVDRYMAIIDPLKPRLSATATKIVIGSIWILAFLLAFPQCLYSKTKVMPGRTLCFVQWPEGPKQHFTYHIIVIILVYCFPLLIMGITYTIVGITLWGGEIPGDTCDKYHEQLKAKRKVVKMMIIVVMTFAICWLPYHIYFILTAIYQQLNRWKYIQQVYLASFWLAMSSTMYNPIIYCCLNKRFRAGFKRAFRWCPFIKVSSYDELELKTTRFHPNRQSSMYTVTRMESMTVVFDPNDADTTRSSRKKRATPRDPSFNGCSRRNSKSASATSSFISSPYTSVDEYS

Substance-P receptor = Substance-P receptor (Homo sapiens, UniProt P25103); assay: Displacement of [3H]substance P from human NK1 receptor expressed in CHO cells; type: cell-based
Meriones unguiculatus [1] = assay: Inhibition of GR-73632-induced foot tapping behavior in Mongolian gerbil at 10 mg/kg, po administered 2 hrs before GR-73632 challenge; type: functional
Meriones unguiculatus [2] = assay: Inhibition of GR-73632-induced foot tapping behavior in po dosed Mongolian gerbil administered 2 hrs before GR-73632 challenge; type: functional; settings: read-out: ID50 (the source's name)

Sequence of Substance-P receptor (P25103 whole entry): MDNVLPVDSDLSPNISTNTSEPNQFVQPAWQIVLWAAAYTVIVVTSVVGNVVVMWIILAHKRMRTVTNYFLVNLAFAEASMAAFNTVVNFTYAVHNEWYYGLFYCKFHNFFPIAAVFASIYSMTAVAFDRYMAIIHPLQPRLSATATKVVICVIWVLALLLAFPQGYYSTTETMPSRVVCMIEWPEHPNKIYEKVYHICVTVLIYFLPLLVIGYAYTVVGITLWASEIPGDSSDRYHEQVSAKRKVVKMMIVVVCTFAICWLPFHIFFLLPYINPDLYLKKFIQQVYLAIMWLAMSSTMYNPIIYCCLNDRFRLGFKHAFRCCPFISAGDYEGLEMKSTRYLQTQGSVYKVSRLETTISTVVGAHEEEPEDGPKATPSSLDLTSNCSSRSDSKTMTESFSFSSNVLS

`CN(CCO)c1cc(-c2ccccc2Cl)c(N(C)C(=O)C(C)(C)c2cc(C(F)(F)F)cc(C(F)(F)F)c2)cn1` gave a Ki (Neuromedin-K receptor) of 2.91 nM and a Ki (Substance-P receptor) of 0.78 nM.

`CCN(CCO)c1cc(-c2ccccc2Cl)c(N(C)C(=O)C(C)(C)c2cc(C(F)(F)F)cc(C(F)(F)F)c2)cn1` gave a Ki (Neuromedin-K receptor) of 12.2 nM, an inhibition in vivo at 10 mg/kg (Meriones unguiculatus [1]) of 100% and a Ki (Substance-P receptor) of 3.37 nM.

With `CN(C(=O)C(C)(C)c1cc(C(F)(F)F)cc(C(F)(F)F)c1)c1cnc(N(CCO)CCO)cc1-c1ccccc1Cl` the Ki (Neuromedin-K receptor) was 0.91 nM and the Ki (Substance-P receptor) was 1.15 nM.

`CN(C(=O)C(C)(C)c1cc(C(F)(F)F)cc(C(F)(F)F)c1)c1cnc(N2CCCC(O)C2)cc1-c1ccccc1Cl` (configuration not stated) was tested, and the Ki (Neuromedin-K receptor) was 15.1 nM and the Ki (Substance-P receptor) was 1.72 nM.

`CN(C(=O)C(C)(C)c1cc(C(F)(F)F)cc(C(F)(F)F)c1)c1cnc(N2CCC[C@@H]2CO)cc1-c1ccccc1Cl` showed a Ki (Neuromedin-K receptor) of 7.27 nM and a Ki (Substance-P receptor) of 1.58 nM.

`CN(C(=O)C(C)(C)c1cc(C(F)(F)F)cc(C(F)(F)F)c1)c1cnc(N(CCO)CCCO)cc1-c1ccccc1Cl` was tested, and the Ki (Neuromedin-K receptor) was 0.95 nM and the Ki (Substance-P receptor) was 1.38 nM.

Work on `CN(C(=O)C(C)(C)c1cc(C(F)(F)F)cc(C(F)(F)F)c1)c1cnc(N2CCCC[C@H]2CO)cc1-c1ccccc1Cl` yielded a Ki (Neuromedin-K receptor) of 7.72 nM and a Ki (Substance-P receptor) of 11.1 nM.

Molecule `CN(C(=O)C(C)(C)c1cc(C(F)(F)F)cc(C(F)(F)F)c1)c1cnc(N2CCCC[C@@H]2CO)cc1-c1ccccc1Cl` has a Ki (Neuromedin-K receptor) of 29.7 nM and a Ki (Substance-P receptor) of 2.27 nM.

For `CN(C(=O)C(C)(C)c1cc(C(F)(F)F)cc(C(F)(F)F)c1)c1cnc(N2C[C@@H](O)C[C@H]2CO)cc1-c1ccccc1Cl`, the ED50 (Meriones unguiculatus [2]) was 1.3 mg/kg.

`CN(C(=O)C(C)(C)c1cc(C(F)(F)F)cc(C(F)(F)F)c1)c1cnc(N2C[C@H](O)C[C@H]2CO)cc1-c1ccccc1Cl` was tested, and the Ki (Neuromedin-K receptor) was 1.12 nM and the ED50 (Meriones unguiculatus [2]) was 1.1 mg/kg.

With `COC[C@@H]1C[C@@H](OC)CN1c1cc(-c2ccccc2Cl)c(N(C)C(=O)C(C)(C)c2cc(C(F)(F)F)cc(C(F)(F)F)c2)cn1` the Ki (Neuromedin-K receptor) was 29.8 nM and the Ki (Substance-P receptor) was 0.91 nM.

In the case of `CN(C(=O)C(C)(C)c1cc(C(F)(F)F)cc(C(F)(F)F)c1)c1cnc(N2CC[C@H](O)[C@H]2CO)cc1-c1ccccc1Cl`, the Ki (Neuromedin-K receptor) is reported as 0.91 nM and the Ki (Substance-P receptor) is reported as 1.58 nM.

Molecule `CN(C(=O)C(C)(C)c1cc(C(F)(F)F)cc(C(F)(F)F)c1)c1cnc(N2CC[C@H](O)C2)cc1-c1ccccc1Cl` has a Ki (Neuromedin-K receptor) of 8.38 nM and a Ki (Substance-P receptor) of 0.86 nM.

`CN(C(=O)C(C)(C)c1cc(C(F)(F)F)cc(C(F)(F)F)c1)c1cnc(N2CCC[C@H]2CO)cc1-c1ccccc1Cl` gave a Ki (Neuromedin-K receptor) of 0.74 nM and a Ki (Substance-P receptor) of 1 nM.

`CCCN(CCO)c1cc(-c2ccccc2Cl)c(N(C)C(=O)C(C)(C)c2cc(C(F)(F)F)cc(C(F)(F)F)c2)cn1` gave a Ki (Neuromedin-K receptor) of 5.4 nM, an inhibition in vivo at 10 mg/kg (Meriones unguiculatus [1]) of 100% and a Ki (Substance-P receptor) of 2.24 nM.

In the case of `CN(C(=O)C(C)(C)c1cc(C(F)(F)F)cc(C(F)(F)F)c1)c1cnc(N2CC[C@@H](O)C2)cc1-c1ccccc1Cl`, the Ki (Neuromedin-K receptor) is reported as 6.87 nM and the Ki (Substance-P receptor) is reported as 2.62 nM.

Molecule `CN(C(=O)C(C)(C)c1cc(C(F)(F)F)cc(C(F)(F)F)c1)c1cnc(NCCO)cc1-c1ccccc1Cl` has a Ki (Substance-P receptor) of 1.12 nM and an ED50 (Meriones unguiculatus [2]) of 1 mg/kg.

`COCCNc1cc(-c2ccccc2Cl)c(N(C)C(=O)C(C)(C)c2cc(C(F)(F)F)cc(C(F)(F)F)c2)cn1` was tested, and the Ki (Neuromedin-K receptor) was 93.3 nM and the Ki (Substance-P receptor) was 3.05 nM.
